In the test the target is T1, aryl hydrocarbon receptor (AHR) (Homo sapiens, UniProt P35869).
T1 sequence (P35869 11-848): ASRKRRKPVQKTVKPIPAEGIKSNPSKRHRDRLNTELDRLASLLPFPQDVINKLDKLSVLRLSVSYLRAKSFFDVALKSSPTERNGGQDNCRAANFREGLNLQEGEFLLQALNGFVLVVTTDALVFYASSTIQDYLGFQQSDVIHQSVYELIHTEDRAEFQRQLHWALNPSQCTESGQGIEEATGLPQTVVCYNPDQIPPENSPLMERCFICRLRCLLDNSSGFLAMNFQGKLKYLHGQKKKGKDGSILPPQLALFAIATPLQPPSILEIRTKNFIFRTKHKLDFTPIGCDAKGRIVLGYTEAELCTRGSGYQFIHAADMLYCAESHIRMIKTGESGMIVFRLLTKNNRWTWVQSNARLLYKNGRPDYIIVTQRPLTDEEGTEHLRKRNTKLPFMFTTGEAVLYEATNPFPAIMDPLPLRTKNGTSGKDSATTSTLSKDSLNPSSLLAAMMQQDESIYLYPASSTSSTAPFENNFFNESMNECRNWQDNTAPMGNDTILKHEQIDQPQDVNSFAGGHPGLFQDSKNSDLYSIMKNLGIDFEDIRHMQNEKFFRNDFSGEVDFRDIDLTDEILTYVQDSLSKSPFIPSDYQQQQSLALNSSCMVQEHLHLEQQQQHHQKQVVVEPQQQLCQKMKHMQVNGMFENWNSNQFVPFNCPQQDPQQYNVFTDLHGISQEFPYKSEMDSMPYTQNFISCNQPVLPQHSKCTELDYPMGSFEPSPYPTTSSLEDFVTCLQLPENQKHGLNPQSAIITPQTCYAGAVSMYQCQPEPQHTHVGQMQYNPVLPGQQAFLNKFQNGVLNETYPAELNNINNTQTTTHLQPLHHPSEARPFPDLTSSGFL
The experiment in a line: DRE-Luciferase reporter high-throughput screen (AHR antagonist, VAF347-activated). (In general: In a reporter assay the amount or activity of a reporter protein is the signal.)

Text: HepG2 hepatocellular carcinoma cells were transfected with a dioxin-response element (DRE) Firefly luciferase reporter construct. Luciferase transcription was activated with the aryl hydrocarbon receptor (AHR) agonist, VAF347. Addition of an AHR antagonist results in inhibition of the luciferase transcription and a loss of signal in the assay.
HepG2, a hepatocellular carcinoma cell line, was transfected with the dioxin-response element Firefly luciferase reporter construct using the TransIT-transfection system. Prior to transfection, HepG2 cells (Sigma) were cultured at 90% confluency in Eagle's Modified Essential Medium (Sigma)+2 mM Glutamine (Sigma), +1^% Non Essential Amino Acids (Sigma)+10% Fetal Bovine Serum (Hyclone) and harvested and counted (Biorad TC20 cell counter). OptilMEM serum-free media and TransIT (Mirus) were mixed for transfection in 150 mm dishes by adding 240 μL Transit to 3.0 mL OptiMEM, vortexing briefly to mix, and incubating at room temperature for 20 minutes. The DNA mixture was prepared by adding 80 μg plasmid (pGudLuc6.1 plasmid, Garrison et al., (1996) Fundam. Appl. Toxicol., 30, 194-203), inverting to mix, and incubating at room temperature for 30 minutes. 30×10^6 HepG2 cells were seeded in 30 mL media and 3.3 mL of the DNA, OptiMEM, and TransIT mixture was added dropwise to the plate. The plate was mixed by rocking and incubated at 37° C./5% CO2 overnight. The next day, cells were harvested by aspirating media, washing once with sterile phosphate buffered saline (PBS, Gibco), trypsinzing with 0.05% Trypsin (Corning) and harvesting cells with culture medium, and freezing with Cell Freezing Media (Gibco) at 5 50×10^6 cells/vial in 1 mL/vial.
Transiently-transfected frozen HepG2 cells with DRE-Luciferase, were thawed in a 37° C. water bath and resuspended in complete media. 4 μL cells at 15,000 cells per well was transferred into the wells of a 1536-well Alphaplate assay plate (PerkinElmer) using TEMPEST liquid dispenser. The plate was centrifuged at 1000 rpm for 1 minute. 30 nL of the controls (1 μM (S)-2-(6-((2-(1H-indol-3-yl)ethyl)amino)-2-(5-fluoropyridin-3-yl)-9H-purin-9-yl)propan-1-ol or 100% DMSO) were transferred to the assay plate using the Pin Tool on BRAVO. 1 μL of VAF347 (15 nM final concentration) in complete media was added to the wells using TEMPEST. The plate was centrifuged at 1000 rpm for 1 minute and incubated at 37° C./5% CO2 overnight. After incubation, the plate was removed from the incubator and brought to room temperature. 2 μL of room temperature Steady-Glo luciferase detection reagent (Promega) was added to the wells with TEMPEST. The plate was centrifuged at 2000 rpm for 1 minute, sealed with clear plastic seal and kept at room temperature for 15 minutes prior to measuring luminescence on ENVISION.
Approximately 166,000 compounds were screened in 132 1536-well plates in the luciferase reporter gene assay at a final concentration of 12 μM. […] Each compound was tested at 0.1 μM, 1.0 μM, and 10 μM in the DRE luciferase assay and Cell Titer Glo cytotoxicity assay (Promega). […] 512 compounds were selected for 10-point dose-response in the AHR luciferase reporter assay and the Cell Titer Glo cytotoxicity assay.

`Cc1nn(-c2ccccc2)c(N)c1-c1nc(-c2ccc(Cl)cc2)cs1` [59A]: the IC50 (in general, the concentration at which inhibition is half-maximal) was above 2000 nM.
For `CNC(=O)c1ccsc1NC(=O)c1cccc(Oc2ccccc2)c1` [16B] the value was 1000 to 2000 nM; for `CC(=O)N(CCn1nc(C)cc1C)c1nc2c(F)cc(F)cc2s1` [compound 93], 200 to 500 nM; for `O=C(c1csc2nc(-c3ccc(F)cc3)cn12)N1C[C@@H]2CC[C@@H]1C2` [97A], 1000 to 2000 nM.
On to `Cc1ccc(-c2nnc(-c3ccncc3)[nH]2)c([N+](=O)[O-])c1` [109A], for which the 50% inhibitory concentration (IC50) fell in the range of 1000 to 2000 nM.
The figure for `CNS(=O)(=O)c1ccc2c(c1)CCN2C(=O)c1ccn(-c2cccc(F)c2)n1` [107A] is 1000 to 2000 nM.
For `COC(=O)C1=C(C)Nc2nc(-c3ccccc3)nn2C1c1cccnc1` (stereo not shown) [126A] the value was 1000 to 2000 nM.
For `Cc1nc(-c2ccccc2F)sc1C(=O)NCc1ccccn1` [63A] the value was above 2000 nM.
`COC(OC)c1ccnc(-c2ccc(I)c(F)c2)n1` [84A] yielded an IC50 of 1000 to 2000 nM.
The figure for `Cn1ccc(NC(=O)c2cc(-c3cccc(Cl)c3)[nH]n2)n1` [31A] is above 2000 nM.
The figure for `Cc1cccn2c(=O)c3cc(C(=O)NCc4ccccc4Cl)sc3nc12` [125B] is 200 to 500 nM; for `CC(=O)Nc1ccc(NC(=O)c2cccc3c2OCC3)cc1` [43A] it is 1000 to 2000 nM; for `CC(C)c1nc2ccc(NC(=O)c3ccc(F)cc3)cc2[nH]1` [37A] it is 1000 to 2000 nM.
On to `O=C(Nc1ccc(C(F)(F)F)oc1=O)c1ccc(Cl)cc1` [17B], for which the IC50 is 500 to 1000 nM.
In turn, `COc1ccc(C(=O)Nc2cc(C)cc(C)n2)cc1` [9B] gave a 50% inhibitory concentration (IC50) of 1000 to 2000 nM.
For `Cc1ccc(-n2nnc(-c3ccc(Cl)cc3)n2)cc1` [110A] the value was 1000 to 2000 nM; for `CCOc1ccc(NC(=O)c2c(C)coc2C)cc1` [11B], 500 to 1000 nM.
Consider `Cc1cc(C)c2cc(C(=O)N(C)Cc3ccc(C)o3)[nH]c2c1` [62B], for which the IC50 fell in the range of 500 to 1000 nM.
For `O=C(Cn1cnnn1)N(CCc1ccccc1)c1nc(-c2ccccc2)cs1` [41B] the value was 1000 to 2000 nM.
The figure for `CS(=O)(=O)Nc1cccc(C(=O)Nc2cccc3cccnc23)c1` [36A] is 1000 to 2000 nM.
`COc1ccccc1NC(=O)c1sc2nc(N3CCOCC3)c3c(c2c1N)CCCC3` [52A] had an IC50 of 1000 to 2000 nM.
Regarding `O=C(Nc1ccc(-c2nccs2)cc1)c1ccc(CN2C(=O)CNC2=O)cc1` [10A], the IC50 was in the range of 1000 to 2000 nM.
The figure for `CCOC(=O)N1CCN(c2nc(Nc3ccc(C)cc3C)c3nccnc3n2)CC1` [82A] is 1000 to 2000 nM; for `CS(=O)(=O)c1csc(C(=O)Nc2cccc(Cl)c2)c1Cl` [18B] it is above 2000 nM.
For `CCOC(=O)c1cc(-c2ccc(F)cc2)[nH]c1C` [100A] the value was above 2000 nM; for `c1ccc(-c2cc(-c3cn4cccnc4n3)on2)cc1` [128A], 1000 to 2000 nM; for `Cc1ccc(N2CC[C@@H]3[C@@H]2CCN3c2ncc(F)cn2)nn1` [181A], 1000 to 2000 nM.
For `CCOC(=O)c1ccc(Nc2nc3nonc3[nH]/c2=N\OC(C)=O)cc1` [97B] the value was 1000 to 2000 nM.
In the case of `COc1cccc(C(=O)Nc2cnc(-c3ccccc3)nc2)c1` [16A], the half-maximal inhibitory concentration (IC50) lay in the range of 1000 to 2000 nM.
For `Clc1ccc2nnn(OCc3cn4cc(Cl)ccc4n3)c2c1` [116A] the value was above 2000 nM; for `COc1ccc(C(=O)Nc2ccc(C)c(F)c2)cc1` [2B], 1000 to 2000 nM.
The figure for `O=c1[nH]c2ccccc2nc1NCc1ccc(F)cc1` [168A] is 1000 to 2000 nM; for `Cn1c(CCC(=O)OCC(=O)N2c3ccccc3CCc3ccccc32)nc2ccccc2c1=O` [127B] it is above 2000 nM; for `Cc1ccccc1NC(=O)c1cc(-c2cnc(-c3ccccc3)nc2)cn1C` [12B] it is 1000 to 2000 nM.
The figure for `CSc1ccc(-c2nnc(NC(=O)C(C)(C)C)s2)cc1` [99B] is above 2000 nM; for `FC(F)(F)c1nnc2ccc(N3CCN(c4ccccc4)CC3)nn12` [73A] it is above 2000 nM.
As to `c1ccc2nc(SCc3nc4ccccc4[nH]3)ccc2c1` [65B], the IC50 fell in the range of 1000 to 2000 nM.

Values taken from patent publication US20210220408A1, “ARYL HYDROCARBON RECEPTOR ANTAGONISTS AND METHODS OF USE” (Magenta Therapeutics Inc., priority 2018, published 2021).
